Results taken from PubChem BioAssay AID1845197 (Molecular Pharmacology Branch, DTP, NCI, 2023).
Several values for one entry are separate records, joined by “and”; a condition that tells them apart may be missing. Equal values may be shown once.

System: 349418-098-R tumor spheroid viability
Assay: Anticancer human tumor 349418-098-R patient-derived lung adenocarcinoma cell line growth inhibition
Settings: spheroids with HUVEC and MSC; for viability, T/C: stronger effect = lower value
Method in brief: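 Complex tumor spheroids combined malignant cells with endothelial cells and mesenchymal stem cells. DNA-damaging drugs and DNA repair inhibitors were tested alone and in combination, at half-log dilutions down from clinical Cmax (top 10 microM if Cmax unknown), 0.25% DMSO final.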

[1] = curve of first compound, second compound 1 µM
[2] = curve of first compound, second compound 3.16 µM
[3] = curve of first compound, second compound 10 µM
[4] = curve of first compound, second compound 31.6 µM
[5] = curve of first compound, second compound 100 µM
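Also: spheroids exposed to compound for 7 days before measurement.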
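For viability, T/C in this document: percent of vehicle control viability with 100% = DMSO-treated spheroids.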

Cn1ncnc1[C@H]1c2n[nH]c(=O)c3cc(F)cc(c23)N[C@@H]1c1ccc(F)cc1
viability, T/C (compound 0.00949 µM): 98.5% and 97% and 84.1%
viability, T/C (compound 0.03 µM): 96.8% and 96.3% and 103%
viability, T/C (compound 0.0949 µM): 95.9% and 95.6% and 97.9%
viability, T/C (compound 0.3 µM): 92.7% and 92.3% and 93.1%
viability, T/C (compound 0.949 µM): 93.1% and 85% and 89.9%
viability, T/C (compound 3 µM): 9.44% and 11.2% and 10.9%
IC50 (curve of compound): 1.72 µM and 1.64 µM and 1.7 µM

O=C(c1cc(Cc2n[nH]c(=O)c3ccccc23)ccc1F)N1CCN(C(=O)C2CC2)CC1 + Cn1nnc2c(C(N)=O)ncn2c1=O
IC50 [1]: > 30 µM
IC50 [2]: > 30 µM
IC50 [3]: 23.2 µM
IC50 [4]: 7.27 µM
IC50 [5]: 1.81 µM
viability, T/C (second compound 1 µM, first compound 0.0949 µM): 98.5%
viability, T/C (second compound 1 µM, first compound 0.3 µM): 98.9%
viability, T/C (second compound 1 µM, first compound 0.949 µM): 103%
viability, T/C (second compound 1 µM, first compound 3 µM): 98.7%
viability, T/C (second compound 1 µM, first compound 9.49 µM): 79.9%
viability, T/C (second compound 1 µM, first compound 30 µM): 57%
viability, T/C (second compound 3.16 µM, first compound 0.0949 µM): 99.5%
viability, T/C (second compound 3.16 µM, first compound 0.3 µM): 100%
viability, T/C (second compound 3.16 µM, first compound 0.949 µM): 99%
viability, T/C (second compound 3.16 µM, first compound 3 µM): 99%
viability, T/C (second compound 3.16 µM, first compound 9.49 µM): 89.1%
viability, T/C (second compound 3.16 µM, first compound 30 µM): 60.3%
viability, T/C (second compound 10 µM, first compound 0.0949 µM): 103%
viability, T/C (second compound 10 µM, first compound 0.3 µM): 103%
viability, T/C (second compound 10 µM, first compound 0.949 µM): 102%
viability, T/C (second compound 10 µM, first compound 3 µM): 96.8%
viability, T/C (second compound 10 µM, first compound 9.49 µM): 81.9%
viability, T/C (second compound 10 µM, first compound 30 µM): 40.5%
viability, T/C (second compound 31.6 µM, first compound 0.0949 µM): 102%
viability, T/C (second compound 31.6 µM, first compound 0.3 µM): 98.5%
viability, T/C (second compound 31.6 µM, first compound 0.949 µM): 100%
viability, T/C (second compound 31.6 µM, first compound 3 µM): 94.7%
viability, T/C (second compound 31.6 µM, first compound 9.49 µM): 36.6%
viability, T/C (second compound 31.6 µM, first compound 30 µM): 16%
viability, T/C (second compound 100 µM, first compound 0.0949 µM): 96.5%
viability, T/C (second compound 100 µM, first compound 0.3 µM): 98%
viability, T/C (second compound 100 µM, first compound 0.949 µM): 78.2%
viability, T/C (second compound 100 µM, first compound 3 µM): 27.9%
viability, T/C (second compound 100 µM, first compound 9.49 µM): 10.2%
viability, T/C (second compound 100 µM, first compound 30 µM): 9.95%

CC1COCCN1c1cc(-c2ccnn2C)c2ccnc(-c3ccn[nH]3)c2n1 (stereo unspecified)
viability, T/C (compound 0.0316 µM): 90.1% and 88.7% and 108%
viability, T/C (compound 0.1 µM): 48.2% and 41.8% and 114%
viability, T/C (compound 0.316 µM): 14.5% and 13% and 23.9%
viability, T/C (compound 1 µM): 11.7% and 10.5% and 18.3%
viability, T/C (compound 3.16 µM): 12.6% and 11.9% and 16.4%
viability, T/C (compound 10 µM): 11.6% (2×) and 11.7%
IC50 (curve of compound): 0.0952 µM and 0.0818 µM and 0.224 µM

COc1ccc([C@@H](O)c2cc(-c3ncnc4cc(N5CCOCC5)ccc34)c(F)cc2Cl)nn1
viability, T/C (compound 0.0316 µM): 106% and 101% and 93.8%
viability, T/C (compound 0.1 µM): 97.6% and 102% and 111%
viability, T/C (compound 0.316 µM): 105% and 103% and 114%
viability, T/C (compound 1 µM): 112% and 102% and 111%
viability, T/C (compound 3.16 µM): 88% and 62.7% and 101%
viability, T/C (compound 10 µM): 30.2% and 29% and 33.6%
IC50 (curve of compound): 6.74 µM and 4.89 µM and 7.57 µM

CC1COCCN1c1cc(-c2ccnn2C)c2ccnc(-c3ccn[nH]3)c2n1 (stereo unspecified) + Cn1nnc2c(C(N)=O)ncn2c1=O
IC50 [1]: 0.0664 µM
IC50 [2]: 0.064 µM
IC50 [3]: 0.0614 µM
IC50 [4]: 0.0679 µM
IC50 [5]: 0.0526 µM
viability, T/C (second compound 1 µM, first compound 0.0316 µM): 90.2%
viability, T/C (second compound 1 µM, first compound 0.1 µM): 27.8%
viability, T/C (second compound 1 µM, first compound 0.316 µM): 11.8%
viability, T/C (second compound 1 µM, first compound 1 µM): 11.1%
viability, T/C (second compound 1 µM, first compound 3.16 µM): 11.1%
viability, T/C (second compound 1 µM, first compound 10 µM): 10.9%
viability, T/C (second compound 3.16 µM, first compound 0.0316 µM): 90.5%
viability, T/C (second compound 3.16 µM, first compound 0.1 µM): 24.4%
viability, T/C (second compound 3.16 µM, first compound 0.316 µM): 12.5%
viability, T/C (second compound 3.16 µM, first compound 1 µM): 10.3%
viability, T/C (second compound 3.16 µM, first compound 3.16 µM): 11.1%
viability, T/C (second compound 3.16 µM, first compound 10 µM): 10.4%
viability, T/C (second compound 10 µM, first compound 0.0316 µM): 90.7%
viability, T/C (second compound 10 µM, first compound 0.1 µM): 20%
viability, T/C (second compound 10 µM, first compound 0.316 µM): 11.9%
viability, T/C (second compound 10 µM, first compound 1 µM): 9.88%
viability, T/C (second compound 10 µM, first compound 3.16 µM): 11.1%
viability, T/C (second compound 10 µM, first compound 10 µM): 9.65%
viability, T/C (second compound 31.6 µM, first compound 0.0316 µM): 91.9%
viability, T/C (second compound 31.6 µM, first compound 0.1 µM): 28.8%
viability, T/C (second compound 31.6 µM, first compound 0.316 µM): 10.5%
viability, T/C (second compound 31.6 µM, first compound 1 µM): 9.5%
viability, T/C (second compound 31.6 µM, first compound 3.16 µM): 11.8%
viability, T/C (second compound 31.6 µM, first compound 10 µM): 10.2%
viability, T/C (second compound 100 µM, first compound 0.0316 µM): 77.9%
viability, T/C (second compound 100 µM, first compound 0.1 µM): 14.8%
viability, T/C (second compound 100 µM, first compound 0.316 µM): 9.79%
viability, T/C (second compound 100 µM, first compound 1 µM): 9.43%
viability, T/C (second compound 100 µM, first compound 3.16 µM): 9.05%
viability, T/C (second compound 100 µM, first compound 10 µM): 9.14%
